Experimental data as given in patent US20210292347A1, “DIHETEROCYCLIC TRIAZINONE NUCLEOSIDE ANALOGS AND THEIR USE FOR MEDICATION” (priority 2020, published 2021).
Converted amounts (≈) assume the structure as drawn. “Also recorded” adds a separate entry of the source. Where two headings read alike, the source gives them in different places.

Legend:
mice sarcoma S180 = experiment: Growth inhibition of S180 sarcoma in mice; format: in vivo, Kunming healthy mice; conditions: for in-vivo anti-tumor efficacy, statistical significance (in words): S180 sarcoma in mice, doses and routes of Table 3
[1] = system: Human pancreatic cancer cell line Panc-1; experiment: cells; format: cell-based; conditions: for IC50: Homo sapiens, PANC-1, MTT, 48 hours, read-out: IC50 and 95% confidence limit, anti-proliferative effect on Panc-1
Procedure: (§1) Cell lines: Human pancreatic cancer cell line Panc-1, human colorectal cancer cell line HT29, human lung cancer cell line NCI-H460 and human breast cancer cell line MCF7; the medium: s DMEM (Gibco BRL), containing 10% fetal calf serum (Gibco BRL) and 2 mM L-glutamine (Gibco BRL).
(§2) Test samples: example compounds 7, 15, 82, 89, 116 and 135. The samples were dissolved in dimethyl sulfoxide (DMSO, Sigma, United States) and medium was added to the final concentration of 0.5%. Cyclophosphamide ware as positive control (Aldrich, United States, purity>96%).
(§3) General Method: cells were digested with trypsin and dispersed into single cells in the medium containing penicillin (25 U/ml) and streptomycin (25 μg/mL). The cells were seeded in 96-well culture plates (Corning Incorporated), at 37° C., with 5% CO2 present for 24 hours. The culture medium was removed, […] test compounds were added, cultured for 48 hours. Culture medium was removed and […] (MTT, USA Sigma products) was added. The result was assayed by SK601-based microplate reader (Japan Seikagaku company's products), 570 nm/630 nm optical density (OD). Cell viability determined by the formula: (Experimental group OD/control OD)×100%; CTX and the positive control subjects treated in the same material simultaneously.

[2] = system: human colorectal cancer cell line HT29; experiment: cells; format: cell-based; conditions: for IC50: Homo sapiens, HT-29, MTT; for anti-proliferative effect on HT29 (in words): colorectal cancer
Procedure: as §1, §2, §3

[3] = system: human lung cancer cell line NCI-H460; experiment: cells; format: cell-based; conditions: for IC50: Homo sapiens, NCI-H460, MTT
Procedure: as §1, §2, §3

[4] = system: human breast cancer cell line MCF7; experiment: cells; format: cell-based; conditions: MCF7, MTT
Procedure: as §1, §2, §3

[5] = 48 hours, read-out: IC50 and 95% confidence limit, anti-proliferative effect on HT29
[6] = cultured for 48 hours, value (95% confidence limit), Table 2, read-out: IC50 Colorectal cancer HT-29
[7] = 48 hours, unit inferred, read-out: IC50 and 95% confidence limits, NCI-H460 cells
[8] = cultured for 48 hours, value (95% confidence limit), Table 2, read-out: IC50 Lung cancer NCI-H460
[9] = 48 hours, unit inferred, read-out: IC50 with 95% confidence limits, MCF7 cells
[10] = cultured for 48 hours, value (95% confidence limit), Table 2, read-out: IC50 Breast cancer MCF7

## Nc1nn(O)c2c(=O)n(C3OC(CO)C(O)C3O)nnc12 (stereo not shown) [Example 15, 7-amino-3-(3,4-dihydroxy-5-(hydroxymethyl)tetrahydrofuran-2-yl)-5-hydroxy-3H-pyrazolo[4,3-d][1,2,3]triazin-4(5H)-one]
Mice sarcoma S180; Mus musculus, S-180, mice, iv, 50 mg/kg, read-out: Inhibition rate (%) S180 sarcoma
  inhibition in vivo at 50 mg/kg: < 40%
Mice sarcoma S180
  in-vivo anti-tumor efficacy, statistical significance (in words): statistically significant
[1]
  IC50: 2.68 µg/mL (≈ 8.93 µM)
[1]; pancreatic cancer
  anti-proliferative effect on Panc-1 (in words): higher inhibition activity
[2]; [5]
  IC50: 3.92 µg/mL
[2]; [6]
  IC50: 3.92 µM
[2]
  anti-proliferative effect on HT29 (in words): close values to CTX; also recorded: higher inhibition activity
[3]; [7]
  IC50: 22 µM
[3]; [8]
  IC50: 22 µM
[3]; lung cancer
  inhibitory effect on NCI-H460 cells (in words): more sensitive to NCI-H460 cells
[4]; [9]
  IC50: 2.73 µM
[4]; [10]
  IC50: 2.73 µM

## CCCc1nn(C(C(=O)O)P(=O)(OCC)OCC)c2c(=O)n(C3CCC(CO)O3)nnc12 (stereo not shown) [Example 82, 2-(diethoxyphosphoryl)-2-(3-(5-(hydroxymethyl)tetrahydrofuran-2-yl)-4-oxo-7-propyl-3H-pyrazolo[4,3-d][1,2,3]triazin-5(4H)-yl)acetic acid]
Mice sarcoma S180; Mus musculus, S-180, mice, iv, 15 mg/kg, read-out: Inhibition rate (%) S180 sarcoma
  inhibition in vivo at 15 mg/kg: < 20%
[1]
  IC50: 53 µg/mL (≈ 112 µM)
[2]; [5]
  IC50: 10.2 µg/mL
[2]; [6]
  IC50: 13.1 µM
[2]
  anti-proliferative effect on HT29 (in words): relatively weak
[3]; [7]
  IC50: 60.5 µM
[3]; [8]
  IC50: 60.5 µM
[4]; [9]
  IC50: 34.3 µM
[4]; [10]
  IC50: 34.3 µM

## Nc1nn(O)c2c(=O)n(C3CSC(CO)O3)nnc12 (stereo not shown) [Example 89, 7-amino-5-hydroxy-3-(2-(hydroxymethyl)-1,3-oxathiolan-5-yl)-3H-pyrazolo[4,3-d][1,2,3]triazin-4(5H)-one]
Mice sarcoma S180; Mus musculus, S-180, mice, ip, 100 mg/kg, read-out: Inhibition rate (%) S180 sarcoma
  inhibition in vivo at 100 mg/kg: < 40%
Mice sarcoma S180
  in-vivo anti-tumor efficacy, statistical significance (in words): statistically significant
[1]
  IC50: 10 µg/mL (≈ 35 µM)
[2]; [5]
  IC50: 13.1 µg/mL
[2]; [6]
  IC50: 10.2 µM
[2]
  anti-proliferative effect on HT29 (in words): relatively weak
[3]; [7]
  IC50: 8.52 µM
[3]; [8]
  IC50: 8.52 µM
[4]; [9]
  IC50: 67.5 µM
[4]; [10]
  IC50: 67.5 µM
